Test results from paper PMC4774911, “Biochemical Screening of Five Protein Kinases from Plasmodium falciparum against 14,000 Cell-Active Compounds” (PLoS ONE, 2016).
Values joined by “and” are separate entries in the source; they are usually repeats but may differ in a detail not shown here. Equal entries are not always repeated.

Key:
[1] = target: T1, Plasmodium falciparum protein kinase 6 (PK6) (Plasmodium falciparum, UniProt Q8IDW1); test: biochemical; conditions: hits below 1 uM; read-out: PK6 IC50
T1 construct: 6-Histidine (N); made in house
T1 sequence (Q8IDW1 1-305): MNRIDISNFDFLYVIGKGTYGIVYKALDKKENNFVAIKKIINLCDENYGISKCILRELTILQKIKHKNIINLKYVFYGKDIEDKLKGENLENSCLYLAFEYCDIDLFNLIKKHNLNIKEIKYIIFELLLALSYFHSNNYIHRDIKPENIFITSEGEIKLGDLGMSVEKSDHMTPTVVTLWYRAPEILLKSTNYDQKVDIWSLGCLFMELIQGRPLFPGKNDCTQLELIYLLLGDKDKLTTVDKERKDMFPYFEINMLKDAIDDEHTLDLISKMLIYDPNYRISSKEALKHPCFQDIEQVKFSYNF

[2] = target: T2, Plasmodium falciparum calcium-dependent protein kinase 1 (CDPK1) (Plasmodium falciparum, UniProt P62344); test: CDPK1 Kinase-Glo ATP-consumption screen and dose-response; assay type: biochemical; conditions: hits below 1 uM; read-out: CDPK1 IC50
T2 construct: 6-Histidine (N); made in house
Method in brief: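 Single-point testing used 1 μM final compound, then dose-response, against CDPK4 and CDPK1 with Syntide-2 (40 μM) as substrate. After 90 min, reactions were halted by 5 mM EGTA, and kinase activity was inferred from depleted ATP via Kinase-Glo luminescence.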

PCTK2 = PCTK2 (Homo sapiens, UniProt Q00537); test: biochemical; set-up: endogenous in cells; host or cells: K562 cell extract; species or system K562 (extract); replicate k of n = 2 (each experiment ID is one independent experiment; two experiment IDs per compound); conditions: read-out: KDapp
MAP3K4 = MAP3K4 (Homo sapiens, UniProt Q9Y6R4); test: biochemical; set-up: endogenous in cells; host or cells: K562 cell extract; species or system K562 (extract); replicate k of n = 2 (each experiment ID is one independent experiment; two experiment IDs per compound); conditions: read-out: KDapp
CAMKK2 = CAMKK2 (Homo sapiens, UniProt Q96RR4); test: biochemical; set-up: endogenous in cells; host or cells: K562 cell extract; species or system K562 (extract); replicate k of n = 2 (each experiment ID is one independent experiment; two experiment IDs per compound); conditions: read-out: KDapp
PRKCD = PRKCD (Homo sapiens, UniProt Q05655); test: biochemical; set-up: endogenous in cells; host or cells: K562 cell extract; species or system K562 (extract); replicate k of n = 2 (each experiment ID is one independent experiment; two experiment IDs per compound); conditions: read-out: KDapp
CDK9 = CDK9 (Homo sapiens, UniProt P50750); test: biochemical; set-up: endogenous in cells; host or cells: K562 cell extract; species or system K562 (extract); replicate k of n = 2 (each experiment ID is one independent experiment; two experiment IDs per compound); conditions: read-out: KDapp
TYK2 = TYK2 (Homo sapiens, UniProt P29597); test: biochemical; set-up: endogenous in cells; host or cells: K562 cell extract; species or system K562 (extract); replicate k of n = 2 (each experiment ID is one independent experiment; two experiment IDs per compound); conditions: read-out: KDapp
MAP2K5 = target: T3, MAP2K5 (Homo sapiens, UniProt Q13163); test: biochemical; set-up: endogenous in cells; host or cells: K562 cell extract; species or system K562 (extract); replicate k of n = 2 (each experiment ID is one independent experiment; two experiment IDs per compound); conditions: read-out: KDapp
T3 sequence (Q13163 1-448): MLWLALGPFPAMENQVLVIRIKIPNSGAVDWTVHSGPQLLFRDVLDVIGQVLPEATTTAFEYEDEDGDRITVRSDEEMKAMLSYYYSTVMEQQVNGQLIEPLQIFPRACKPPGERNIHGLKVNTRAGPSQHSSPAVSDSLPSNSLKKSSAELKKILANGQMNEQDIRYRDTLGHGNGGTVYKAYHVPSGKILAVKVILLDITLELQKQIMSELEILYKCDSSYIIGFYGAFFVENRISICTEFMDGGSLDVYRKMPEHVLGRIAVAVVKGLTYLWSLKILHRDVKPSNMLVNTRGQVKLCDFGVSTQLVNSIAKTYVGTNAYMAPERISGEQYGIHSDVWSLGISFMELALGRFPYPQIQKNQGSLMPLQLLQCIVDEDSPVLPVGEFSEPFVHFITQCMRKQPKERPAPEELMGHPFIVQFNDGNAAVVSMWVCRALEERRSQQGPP

MAP4K4 = MAP4K4 (Homo sapiens, UniProt O95819); test: biochemical; set-up: endogenous in cells; host or cells: K562 cell extract; species or system K562 (extract); replicate k of n = 2 (each experiment ID is one independent experiment; two experiment IDs per compound); conditions: read-out: KDapp
Chain of MAP4K4 (O95819 whole entry): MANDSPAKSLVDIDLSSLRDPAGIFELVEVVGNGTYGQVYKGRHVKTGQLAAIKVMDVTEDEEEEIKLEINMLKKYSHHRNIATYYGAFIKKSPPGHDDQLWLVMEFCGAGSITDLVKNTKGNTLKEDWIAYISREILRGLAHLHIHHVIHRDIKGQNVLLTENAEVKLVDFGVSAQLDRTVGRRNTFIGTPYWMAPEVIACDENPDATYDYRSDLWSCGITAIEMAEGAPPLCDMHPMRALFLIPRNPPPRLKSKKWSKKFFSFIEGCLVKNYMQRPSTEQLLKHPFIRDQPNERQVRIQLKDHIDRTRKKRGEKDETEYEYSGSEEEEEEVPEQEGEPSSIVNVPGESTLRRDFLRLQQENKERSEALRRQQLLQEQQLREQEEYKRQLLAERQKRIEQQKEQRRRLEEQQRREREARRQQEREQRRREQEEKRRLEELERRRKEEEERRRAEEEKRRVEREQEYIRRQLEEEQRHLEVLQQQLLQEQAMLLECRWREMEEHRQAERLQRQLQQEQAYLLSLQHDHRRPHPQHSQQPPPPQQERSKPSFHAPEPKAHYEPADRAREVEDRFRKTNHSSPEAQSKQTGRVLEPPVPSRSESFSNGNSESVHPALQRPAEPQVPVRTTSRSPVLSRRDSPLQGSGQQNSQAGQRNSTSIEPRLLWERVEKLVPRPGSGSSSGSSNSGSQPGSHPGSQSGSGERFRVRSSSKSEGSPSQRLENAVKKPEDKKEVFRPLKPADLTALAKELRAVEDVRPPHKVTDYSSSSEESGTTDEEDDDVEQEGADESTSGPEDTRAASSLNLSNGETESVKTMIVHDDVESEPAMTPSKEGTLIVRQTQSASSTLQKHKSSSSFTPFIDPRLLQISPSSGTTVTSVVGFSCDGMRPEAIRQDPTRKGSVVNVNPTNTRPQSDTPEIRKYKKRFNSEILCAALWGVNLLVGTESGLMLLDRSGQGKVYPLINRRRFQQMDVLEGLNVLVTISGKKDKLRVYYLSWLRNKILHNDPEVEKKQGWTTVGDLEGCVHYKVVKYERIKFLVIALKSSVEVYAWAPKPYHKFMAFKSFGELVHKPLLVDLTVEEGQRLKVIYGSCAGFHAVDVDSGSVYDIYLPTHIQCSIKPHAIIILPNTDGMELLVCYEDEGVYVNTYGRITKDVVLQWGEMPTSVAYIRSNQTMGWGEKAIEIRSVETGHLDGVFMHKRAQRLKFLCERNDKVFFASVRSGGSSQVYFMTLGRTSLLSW

Chain of CDK9 (P50750 whole entry): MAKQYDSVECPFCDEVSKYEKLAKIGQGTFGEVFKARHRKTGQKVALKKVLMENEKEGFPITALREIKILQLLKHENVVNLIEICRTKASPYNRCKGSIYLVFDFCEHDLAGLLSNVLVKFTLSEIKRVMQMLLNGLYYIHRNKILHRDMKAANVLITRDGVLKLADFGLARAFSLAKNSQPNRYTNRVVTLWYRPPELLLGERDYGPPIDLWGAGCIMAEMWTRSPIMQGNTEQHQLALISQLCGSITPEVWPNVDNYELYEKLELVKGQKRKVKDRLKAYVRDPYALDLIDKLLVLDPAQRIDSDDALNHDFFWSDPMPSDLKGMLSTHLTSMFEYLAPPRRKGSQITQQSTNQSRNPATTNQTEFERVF
Chain of PCTK2 (Q00537 whole entry): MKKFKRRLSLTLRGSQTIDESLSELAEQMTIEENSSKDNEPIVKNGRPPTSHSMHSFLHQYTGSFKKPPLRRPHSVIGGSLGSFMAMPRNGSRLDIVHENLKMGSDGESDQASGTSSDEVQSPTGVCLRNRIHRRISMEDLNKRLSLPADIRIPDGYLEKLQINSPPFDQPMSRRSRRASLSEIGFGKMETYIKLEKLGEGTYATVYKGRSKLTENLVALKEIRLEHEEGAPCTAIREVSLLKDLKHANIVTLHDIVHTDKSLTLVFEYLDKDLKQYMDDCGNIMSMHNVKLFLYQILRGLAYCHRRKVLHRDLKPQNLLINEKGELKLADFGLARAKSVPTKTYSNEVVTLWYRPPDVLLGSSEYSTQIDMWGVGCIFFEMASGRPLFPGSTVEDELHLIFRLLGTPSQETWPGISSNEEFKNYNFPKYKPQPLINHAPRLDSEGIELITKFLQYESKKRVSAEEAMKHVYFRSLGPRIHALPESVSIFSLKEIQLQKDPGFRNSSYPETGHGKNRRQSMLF
Chain of CAMKK2 (Q96RR4 whole entry): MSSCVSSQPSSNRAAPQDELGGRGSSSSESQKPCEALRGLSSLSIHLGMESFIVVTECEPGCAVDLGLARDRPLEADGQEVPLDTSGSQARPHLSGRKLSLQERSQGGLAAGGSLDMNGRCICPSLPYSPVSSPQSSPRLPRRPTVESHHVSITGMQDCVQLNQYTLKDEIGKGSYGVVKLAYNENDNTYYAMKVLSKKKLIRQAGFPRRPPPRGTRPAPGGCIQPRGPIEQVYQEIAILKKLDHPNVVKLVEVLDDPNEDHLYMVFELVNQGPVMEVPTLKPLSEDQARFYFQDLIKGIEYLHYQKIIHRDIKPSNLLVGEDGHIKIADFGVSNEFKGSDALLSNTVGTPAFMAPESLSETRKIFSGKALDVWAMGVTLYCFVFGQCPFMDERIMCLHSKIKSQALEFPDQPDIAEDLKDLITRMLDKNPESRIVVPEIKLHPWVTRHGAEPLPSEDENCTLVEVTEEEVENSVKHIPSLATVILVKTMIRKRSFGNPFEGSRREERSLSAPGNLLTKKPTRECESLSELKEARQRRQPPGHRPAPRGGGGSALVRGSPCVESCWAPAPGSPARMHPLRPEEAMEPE
Chain of TYK2 (P29597 whole entry): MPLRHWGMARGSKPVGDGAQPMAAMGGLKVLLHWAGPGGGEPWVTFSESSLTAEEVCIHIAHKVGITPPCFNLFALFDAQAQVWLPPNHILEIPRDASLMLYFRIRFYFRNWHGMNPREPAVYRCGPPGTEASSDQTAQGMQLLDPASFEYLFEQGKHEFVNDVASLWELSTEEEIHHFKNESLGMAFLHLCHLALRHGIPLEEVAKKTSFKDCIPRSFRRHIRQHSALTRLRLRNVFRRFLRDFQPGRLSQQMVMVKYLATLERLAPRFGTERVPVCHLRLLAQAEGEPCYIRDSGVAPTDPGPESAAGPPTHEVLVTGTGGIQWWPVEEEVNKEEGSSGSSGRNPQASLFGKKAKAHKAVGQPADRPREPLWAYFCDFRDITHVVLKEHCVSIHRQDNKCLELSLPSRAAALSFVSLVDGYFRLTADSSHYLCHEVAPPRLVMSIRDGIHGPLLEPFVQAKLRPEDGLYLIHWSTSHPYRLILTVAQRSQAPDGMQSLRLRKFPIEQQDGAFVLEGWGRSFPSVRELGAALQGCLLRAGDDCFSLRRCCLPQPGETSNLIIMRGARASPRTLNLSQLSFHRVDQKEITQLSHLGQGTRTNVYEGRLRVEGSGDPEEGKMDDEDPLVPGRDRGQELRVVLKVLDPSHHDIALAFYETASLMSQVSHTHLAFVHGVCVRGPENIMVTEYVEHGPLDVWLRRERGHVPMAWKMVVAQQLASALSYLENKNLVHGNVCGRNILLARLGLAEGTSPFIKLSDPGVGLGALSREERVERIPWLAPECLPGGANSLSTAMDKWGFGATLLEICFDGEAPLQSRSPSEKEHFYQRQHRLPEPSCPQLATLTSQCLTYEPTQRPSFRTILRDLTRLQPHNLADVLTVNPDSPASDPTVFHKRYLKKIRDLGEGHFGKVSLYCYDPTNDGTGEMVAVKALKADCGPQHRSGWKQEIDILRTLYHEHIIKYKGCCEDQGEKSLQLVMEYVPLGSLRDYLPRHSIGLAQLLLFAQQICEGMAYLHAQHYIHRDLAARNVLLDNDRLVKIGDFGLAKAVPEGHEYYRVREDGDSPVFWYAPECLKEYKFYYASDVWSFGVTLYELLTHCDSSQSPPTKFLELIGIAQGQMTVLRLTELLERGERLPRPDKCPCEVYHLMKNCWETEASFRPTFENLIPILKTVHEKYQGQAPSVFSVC
Chain of PRKCD (Q05655 whole entry): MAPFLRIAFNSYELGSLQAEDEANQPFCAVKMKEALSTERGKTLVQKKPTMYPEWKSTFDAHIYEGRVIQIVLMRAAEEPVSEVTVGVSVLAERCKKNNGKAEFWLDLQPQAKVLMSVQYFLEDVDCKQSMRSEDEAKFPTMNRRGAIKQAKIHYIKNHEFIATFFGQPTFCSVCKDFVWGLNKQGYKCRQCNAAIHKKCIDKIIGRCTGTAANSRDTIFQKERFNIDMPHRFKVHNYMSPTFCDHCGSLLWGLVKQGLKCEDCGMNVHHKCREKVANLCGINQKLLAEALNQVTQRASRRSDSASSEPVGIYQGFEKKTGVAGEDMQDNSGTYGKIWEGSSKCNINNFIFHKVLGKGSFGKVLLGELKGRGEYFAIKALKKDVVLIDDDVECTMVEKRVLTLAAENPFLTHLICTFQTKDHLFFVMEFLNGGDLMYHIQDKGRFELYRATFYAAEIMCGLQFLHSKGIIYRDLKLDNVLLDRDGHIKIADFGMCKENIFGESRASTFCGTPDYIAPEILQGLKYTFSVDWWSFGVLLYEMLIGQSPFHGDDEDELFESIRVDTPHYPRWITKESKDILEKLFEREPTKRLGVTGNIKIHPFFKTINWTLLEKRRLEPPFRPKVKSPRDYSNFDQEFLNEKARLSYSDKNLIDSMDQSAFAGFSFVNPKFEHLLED

SMILES: CN1CCN(c2ccc(Nc3ncc(C#N)c(Nc4ccccc4C(N)=O)n3)cc2)CC1.Cl [TCMDC-134116]
- IC50 [1]: 89 nM
- IC50 [2]: 12 nM
- Kd (PCTK2): 57.7 nM and 83.5 nM
- Kd (MAP3K4): 19.8 nM and 25.8 nM
- Kd (CAMKK2): 131 nM and 139 nM
- Kd (PRKCD): 685 nM
- Kd (CDK9): 576 nM and 393 nM
- Kd (TYK2): 35.6 nM and 32.8 nM
- Kd (MAP2K5): 218 nM and 283 nM

SMILES: Cl.NCC1(c2nc(-c3ccc(Cl)c(O)c3)c(-c3ccncc3)[nH]2)CCCCC1 [TCMDC-141154]
- IC50 [2]: 14 nM
- Kd (PRKCD): 806 nM
- Kd (MAP2K5): 479 nM
- Kd (MAP4K4): 850 nM and 539 nM

SMILES: CN(C)CC(O)COc1ccc(Nc2ncc([N+](=O)[O-])c(Nc3ccccc3O)n2)cc1.O=C(O)C(F)(F)F (centres unmarked) [TCMDC-141399]
- IC50 [1]: 67 nM
- Kd (PCTK2): 1140 nM and 1060 nM
- Kd (MAP3K4): 426 nM
- Kd (CAMKK2): 1940 nM and 2040 nM
- Kd (CDK9): 2780 nM and 3820 nM
- Kd (TYK2): 677 nM
- Kd (MAP4K4): 1020 nM and 680 nM
